Source: US20100029619A1, “FUSED HETEROCYCLIC COMPOUND” (TAKEDA PHARMACEUTICAL COMPANY LIMTED, priority 2006, published 2010)

| SMILES | melting point |
| --- | --- |
| CC(C)(C)c1ccc(C(=O)Nc2cn3cc(-c4cccnc4)ccc3n2)cn1 [Example 102, 6-tert-butyl-N-(6-(pyridin-3-yl)imidazo[1,2-a]pyridin-2-yl)nicotinamide] | 272 to 274 °C |
| CC(C)(CO)c1ccc(C(=O)Nc2cn3cc(-n4ccnc4)ccc3n2)cc1 [Example 103, 4-(2-hydroxy-1,1-dimethylethyl)-N-[6-(1H-imidazol-1-yl)imidazo[1,2-a]pyridin-2-yl]benzamide] | 278 to 280 °C |
| COc1ccc(-c2ccc3nc(NC(=O)c4ccc(C(C)(C)C)cc4)cn3c2)cn1 [Example 106, 4-tert-butyl-N-[6-(6-methoxypyridin-3-yl)imidazo[1,2-a]pyridin-2-yl]benzamide] | 245 to 247 °C |
| CS(=O)(=O)Nc1ccc(C(=O)Nc2cn3cc(Cl)ccc3n2)cc1 [Example 110, N-(6-chloroimidazo[1,2-a]pyridin-2-yl)-4-[(methylsulfonyl)amino]benzamide] | 293 to 295 °C |
| CC(C)(C)c1ccc(C(=O)Nc2cn3cc(-c4cn[nH]c4)ccc3n2)cn1 [Example 114, 6-tert-butyl-N-[6-(1H-pyrazol-4-yl)imidazo[1,2-a]pyridin-2-yl]nicotinamide] | 238 to 240 °C |
| CC(C)(CC(=O)O)c1ccc(C(=O)Nc2cn3cc(Cl)ccc3n2)cc1 [Example 117, 3-(4-{[(6-chloroimidazo[1,2-a]pyridin-2-yl)amino]carbonyl}phenyl)-3-methylbutanoic acid] | 304 to 306 °C (dec.) |
| CC(=O)NCC(C)(C)c1ccc(C(=O)Nc2cn3cc(Cl)ccc3n2)cc1 [Example 122, 4-[2-(acetylamino)-1,1-dimethylethyl]-N-(6-chloroimidazo[1,2-a]pyridin-2-yl)benzamide] | 220 to 222 °C |
| CNC(=O)CC(C)(C)c1ccc(C(=O)Nc2cn3cc(Cl)ccc3n2)cc1 [Example 128, N-(6-chloroimidazo[1,2-a]pyridin-2-yl)-4-[1,1-dimethyl-3-(methylamino)-3-oxopropyl]benzamide] | 228 to 230 °C |
| CCC(=O)NC(C)(C)c1ccc(C(=O)Nc2cn3cc(Cl)ccc3n2)cc1 [Example 129, N-(6-chloroimidazo[1,2-a]pyridin-2-yl)-4-[1-methyl-1-(propionylamino)ethyl]benzamide] | 249 to 252 °C |
| CC(C)(C#N)c1ccc(C(=O)Nc2cn3cc(-n4ccnc4)ccc3n2)cc1 [Example 130, 4-(1-cyano-1-methylethyl)-N-[6-(1H-imidazol-1-yl)imidazo[1,2-a]pyridin-2-yl]benzamide] | 241 to 244 °C |
| CCN(c1ccc(C(=O)Nc2cn3cc(Cl)ccc3n2)cc1)S(C)(=O)=O [Example 131, N-(6-chloroimidazo[1,2-a]pyridin-2-yl)-4-[ethyl(methylsulfonyl)amino]benzamide] | 245 to 247 °C |
| CCCNCC(C)(C)c1ccc(C(=O)Nc2cn3cc(-n4ccnc4)ccc3n2)cc1 [Example 136, 4-[1,1-dimethyl-2-(propylamino)ethyl]-N-[6-(1H-imidazol-1-yl)imidazo[1,2-a]pyridin-2-yl]benzamide] | 162 to 164 °C |
| CC(C)(C)c1ccc(C(=O)Nc2cn3nc(-n4cnc(CC#N)c4)ccc3n2)cc1 [Example 142, 4-tert-butyl-N-{6-[4-(cyanomethyl)-1H-imidazol-1-yl]imidazo[1,2-b]pyridazin-2-yl}benzamide] | 314 to 316 °C (dec.) |
| CC(C)(C)c1ccc(C(=O)Nc2cn3nc(-n4cnc(CO)c4)ccc3n2)cc1 [Example 145, 4-tert-butyl-N-{6-[4-(hydroxymethyl)-1H-imidazol-1-yl]imidazo[1,2-b]pyridazin-2-yl}benzamide] | 298 to 301 °C |
| CC(C)(C)c1ccc(C(=O)Nc2cn3nc(-n4cnc(Br)c4)ccc3n2)cc1 [Example 147, N-[6-(4-bromo-1H-imidazol-1-yl)imidazo[1,2-b]pyridazin-2-yl]-4-tert-butylbenzamide] | 306 to 307 °C |
| CC(C)(C)c1ccc(C(=O)Nc2cn3nc(NCc4ccncc4)ccc3n2)cc1 [Example 159, 4-tert-butyl-N-{6-[(pyridin-4-ylmethyl)amino]imidazo[1,2-b]pyridazin-2-yl}benzamide] | 222 to 223 °C |
| CC(C)(C)c1ccc(C(=O)Nc2cn3nc(NCc4ccccn4)ccc3n2)cc1 [Example 161, 4-tert-butyl-N-{6-[(pyridin-2-ylmethyl)amino]imidazo[1,2-b]pyridazin-2-yl}benzamide] | 196 to 197 °C |
| CC(C)(C)c1ccc(C(=O)Nc2cn3nc(NCCc4ccncc4)ccc3n2)cc1 [Example 162, 4-tert-butyl-N-{6-[(2-pyridin-4-ylethyl)amino]imidazo[1,2-b]pyridazin-2-yl}benzamide] | 279 °C |
| CC(C)(C)c1ccc(C(=O)Nc2cn3nc(NCCc4cccnc4)ccc3n2)cc1 [Example 163, 4-tert-butyl-N-{6-[(2-pyridin-3-ylethyl)amino]imidazo[1,2-b]pyridazin-2-yl}benzamide] | 231 °C |
| CC(C)(C)c1ccc(C(=O)Nc2cn3nc(NC4CCCC4)ccc3n2)cc1 [Example 165, 4-tert-butyl-N-[6-(cyclopentylamino)imidazo[1,2-b]pyridazin-2-yl]benzamide] | 272 to 273 °C |
| CC(C)(C)c1ccc(C(=O)Nc2cn3nc(NC4CC4)ccc3n2)cc1 [Example 166, 4-tert-butyl-N-[6-(cyclopropylamino)imidazo[1,2-b]pyridazin-2-yl]benzamide] | 274 to 275 °C |
| CCCNc1ccc2nc(NC(=O)c3ccc(C(C)(C)C)cc3)cn2n1 [Example 167, 4-tert-butyl-N-[6-(propylamino)imidazo[1,2-b]pyridazin-2-yl]benzamide] | 243 to 244 °C |
| CC(C)(C)c1ccc(C(=O)Nc2cn3nc(NC4CCNC4)ccc3n2)cc1 (stereo not shown) [Example 170, 4-tert-butyl-N-{6-[(pyrrolidin-3-yl)amino]imidazo[1,2-b]pyridazin-2-yl}benzamide] | 264 to 265 °C |

The next lines start with the values.

| melting point | SMILES |
| --- | --- |
| 228 to 230 °C | Cn1cc(-c2ccc3nc(NC(=O)c4ccc(C(C)(C)C)nc4)cn3c2)cn1 [Example 105, 6-tert-butyl-N-[6-(1-methyl-1H-pyrazol-4-yl)imidazo[1,2-a]pyridin-2-yl]nicotinamide] |
| 273 to 275 °C | CC(C)(C)c1ccc(C(=O)Nc2cn3cc(-c4cccs4)ccc3n2)cc1 [Example 107, 4-tert-butyl-N-[6-(2-thienyl)imidazo[1,2-a]pyridin-2-yl]benzamide] |
| 261 to 263 °C | CC(C)(C)c1ccc(C(=O)Nc2cn3cc(-c4ccsc4)ccc3n2)cc1 [Example 108, 4-tert-butyl-N-[6-(3-thienyl)imidazo[1,2-a]pyridin-2-yl]benzamide] |
| 309 to 311 °C (dec.) | CC(C)(CCC(=O)O)c1ccc(C(=O)Nc2cn3cc(Cl)ccc3n2)cc1 [Example 118, 4-(4-{[(6-chloroimidazo[1,2-a]pyridin-2-yl)amino]carbonyl}phenyl)-4-methylpentanoic acid] |
| 225 to 227 °C | CCC(=O)NCC(C)(C)c1ccc(C(=O)Nc2cn3cc(Cl)ccc3n2)cc1 [Example 126, N-(6-chloroimidazo[1,2-a]pyridin-2-yl)-4-[1,1-dimethyl-2-(propionylamino)ethyl]benzamide] |
| 228 to 230 °C | CCNC(=O)C(C)(C)c1ccc(C(=O)Nc2cn3cc(Cl)ccc3n2)cc1 [Example 127, N-(6-chloroimidazo[1,2-a]pyridin-2-yl)-4-[2-(ethylamino)-1,1-dimethyl-2-oxoethyl]benzamide] |
| 242 to 244 °C | CC(=O)NCC(C)(C)c1ccc(C(=O)Nc2cn3cc(-n4ccnc4)ccc3n2)cc1 [Example 135, 4-[2-(acetylamino)-1,1-dimethylethyl]-N-[6-(1H-imidazol-1-yl)imidazo[1,2-a]pyridin-2-yl]benzamide] |
| 254 to 255 °C | Cc1cn(-c2ccc3nc(NC(=O)c4ccc(C(C)(C)C)cc4)cn3n2)c(C)n1 [Example 143, 4-tert-butyl-N-[6-(2,4-dimethyl-1H-imidazol-1-yl)imidazo[1,2-b]pyridazin-2-yl]benzamide] |
| 220 to 221 °C | CCc1nc(C)cn1-c1ccc2nc(NC(=O)c3ccc(C(C)(C)C)cc3)cn2n1 [Example 144, 4-tert-butyl-N-[6-(2-ethyl-4-methyl-1H-imidazol-1-yl)imidazo[1,2-b]pyridazin-2-yl]benzamide] |
| 281 to 282 °C | CC(C)(C)c1ccc(C(=O)Nc2cn3nc(-n4cnc(Cl)c4Cl)ccc3n2)cc1 [Example 146, 4-tert-butyl-N-[6-(4,5-dichloro-1H-imidazol-1-yl)imidazo[1,2-b]pyridazin-2-yl]benzamide] |
| 267 to 268 °C | CC(C)(C)c1ccc(C(=O)Nc2cn3nc(N)ccc3n2)cc1 [Example 148, N-(6-aminoimidazo[1,2-b]pyridazin-2-yl)-4-tert-butylbenzamide] |
| 237 to 238 °C | CC(=O)c1ccc2nc(NC(=O)c3ccc(C(C)(C)C)cc3)cn2n1 [Example 151, N-(6-acetylimidazo[1,2-b]pyridazin-2-yl)-4-tert-butylbenzamide] |
| 232 to 233 °C | CC(C)(C)c1ccc(C(=O)Nc2cn3nc(NCc4cccnc4)ccc3n2)cc1 [Example 160, 4-tert-butyl-N-{6-[(pyridin-3-ylmethyl)amino]imidazo[1,2-b]pyridazin-2-yl}benzamide] |
| 296 to 297 °C | CC(C)(C)c1ccc(C(=O)Nc2cn3nc(NC4CCCCC4)ccc3n2)cc1 [Example 164, 4-tert-butyl-N-[6-(cyclohexylamino)imidazo[1,2-b]pyridazin-2-yl]benzamide] |
| 275 to 277 °C | CN1CCC(Nc2ccc3nc(NC(=O)c4ccc(C(C)(C)C)cc4)cn3n2)CC1 [Example 168, 4-tert-butyl-N-{6-[(1-methylpiperidin-4-yl)amino]imidazo[1,2-b]pyridazin-2-yl}benzamide] |
| 231 to 233 °C | CC(C)(C)c1ccc(C(=O)Nc2cn3nc(NCCO)ccc3n2)cc1 [Example 169, 4-tert-butyl-N-{6-[(2-hydroxyethyl)amino]imidazo[1,2-b]pyridazin-2-yl}benzamide] |
| 242 to 243 °C | CC(C)(C)c1ccc(C(=O)Nc2cn3nc(NC4CCNCC4)ccc3n2)cc1 [Example 171, 4-tert-butyl-N-[6-(piperidin-4-ylamino)imidazo[1,2-b]pyridazin-2-yl]benzamide] |
